Test results as given in ChEMBL document CHEMBL1201862, “PubChem BioAssay data set” (2004).
The source made the active and inactive calls.

Experiments:
[1] = inhibitors of firefly luciferase expression or activity, dose response, H4 neuroglioma cells, luminescence (AID 1990); format: functional, cell-based
[2] = test system: Streptococcus sp. 'group A'; experiment: growth inhibition of control SK(-) GAS strain, dose response, counter-screen for streptokinase expression inhibitor project, luminescence, kanamycin, BacTiterGlo, confirmation (AID 1900); format: functional, organism-based
[3] = Luminescence Cell-Based Dose Response HTS to Identify Inhibitors of 5'UTR Stem-Loop Driven Prion Protein mRNA Translation in H4 Neuroglioblastoma Cells. [Related pubchem assays: 1827 (Project Summary), 1813 (Primary HTS)]; format: functional
[4] = inhibitors of SNCA 5'UTR-driven reporter translation, confirmation, H4 neuroglioma cells, luminescence (AID 1988); format: functional, cell-based
Streptokinase A = molecular target: T1, Streptokinase A (Streptococcus pyogenes serotype M1, UniProt P10520); experiment: S. pyogenes streptokinase expression inhibitors, potency, dose response, plasminogen activation absorbance, OD405 (AID 1914); format: functional, Streptococcus pyogenes M1 GAS;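 further: secreted streptokinase activity via plasminogen activation per viability signal from cell pellet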
T1 sequence (P10520 whole entry): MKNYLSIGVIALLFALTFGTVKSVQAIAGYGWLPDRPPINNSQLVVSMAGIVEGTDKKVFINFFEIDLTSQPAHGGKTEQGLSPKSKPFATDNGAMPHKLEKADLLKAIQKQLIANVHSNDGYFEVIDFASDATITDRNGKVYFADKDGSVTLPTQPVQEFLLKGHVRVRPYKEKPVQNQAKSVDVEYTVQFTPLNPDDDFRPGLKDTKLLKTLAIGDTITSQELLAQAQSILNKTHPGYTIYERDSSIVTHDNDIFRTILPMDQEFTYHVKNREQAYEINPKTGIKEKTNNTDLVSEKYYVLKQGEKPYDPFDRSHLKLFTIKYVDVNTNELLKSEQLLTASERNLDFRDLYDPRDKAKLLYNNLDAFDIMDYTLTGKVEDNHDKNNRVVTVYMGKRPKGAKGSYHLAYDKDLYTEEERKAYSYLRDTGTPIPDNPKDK

Streptococcus = experiment: Group A Streptococcus viability loss, dose response, counter-screen for streptokinase expression inhibitor project, luminescence, BacTiterGlo (AID 1915); format: functional, organism-based;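 further: potency for reduction of bacterial viability or growth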
INS1 = experiment: beta cell apoptosis inhibitors, cytokine rescue, dose response, luminescence, retest (AID 449756); format: functional, cell-based; conditions: Rattus norvegicus;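 further: cell death triggered by IL-1 beta plus TNF-alpha plus IFN-gamma mixture; protective hits raise ATP signal compared with cytokine alone wells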
[5] = Shn3 3'UTR reporter inhibitors, dose response, cell-based, Clone20 osteoblasts, firefly luciferase, cherry-picked (AID 624132); format: functional;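 further: firefly luciferase luminescence from reporter carrying the Shn3 3'UTR in osteoblasts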
[6] = HepG2 cell cytotoxicity, dose response, cytotoxicity control for Shn3 inhibitor project, CellTiter-Glo, cherry-picked (AID 624134); format: functional, cell-based
[7] = control 3'UTR Renilla luciferase suppression, dose response, counter-screen for Shn3 inhibitor project, cell-based, Clone20-Shn3RL, cherry-picked (AID 624133); format: functional
Fatty acid synthase [8] = molecular target: T2, Fatty acid synthase (Homo sapiens, UniProt P49327); experiment: FAS thioesterase domain inhibitors, dose response, biochemical, endpoint fluorescence intensity, uHTS hits (AID 624327); format: functional;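 further: fluorescence from hydrolysis of an O-methyl fluorescein acyl ester substrate by the enzyme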
[9] = molecular target: ATP-binding cassette sub-family B member 6 (Homo sapiens, UniProt Q9NP58); experiment: ABCB6 transporter inhibitors, porphyrin accumulation, dose response, flow cytometry, K562-ABCB6 cells, cherry pick 02 (AID 624487); format: functional; conditions: read-out: EC50_MICROM
Fatty acid synthase [10] = molecular target: T2, Fatty acid synthase; experiment: FAS thioesterase domain inhibitors, dose response, biochemical, kinetic fluorescence intensity (AID 624326); format: functional;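 further: rate of fluorescence rise from hydrolysis of a fluorogenic O-methyl fluorescein ester substrate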
Paired box protein Pax-8 = Paired box protein Pax-8 (Homo sapiens, UniProt Q06710); experiment: inhibitors of PAX8-driven TPO luciferase reporter, dose response, RMG-I cells, cherry-pick (AID 687027); format: functional, cell-based;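 further: luciferase reporter driven by Pax8 target thyroperoxidase promoter measured by SteadyGlo luminescence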
[11] = non-specific cell cytotoxicity, dose response, cytotoxicity control for PAX8 inhibitor project, plate reader, dry powder samples (AID 743021); format: functional, cell-based
[12] = molecular target: T3, Short transient receptor potential channel 4 (Mus musculus, UniProt Q9QUQ5); experiment: mouse TRPC4 channel inhibitors, dose response, cell-based, HEK293 TRPC4/mu-opioid, Fluo-4 calcium (AID 434942); format: functional;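 further: potency of inhibitors blocking the TRPC4 calcium response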
T3 sequence (Q9QUQ5 whole entry): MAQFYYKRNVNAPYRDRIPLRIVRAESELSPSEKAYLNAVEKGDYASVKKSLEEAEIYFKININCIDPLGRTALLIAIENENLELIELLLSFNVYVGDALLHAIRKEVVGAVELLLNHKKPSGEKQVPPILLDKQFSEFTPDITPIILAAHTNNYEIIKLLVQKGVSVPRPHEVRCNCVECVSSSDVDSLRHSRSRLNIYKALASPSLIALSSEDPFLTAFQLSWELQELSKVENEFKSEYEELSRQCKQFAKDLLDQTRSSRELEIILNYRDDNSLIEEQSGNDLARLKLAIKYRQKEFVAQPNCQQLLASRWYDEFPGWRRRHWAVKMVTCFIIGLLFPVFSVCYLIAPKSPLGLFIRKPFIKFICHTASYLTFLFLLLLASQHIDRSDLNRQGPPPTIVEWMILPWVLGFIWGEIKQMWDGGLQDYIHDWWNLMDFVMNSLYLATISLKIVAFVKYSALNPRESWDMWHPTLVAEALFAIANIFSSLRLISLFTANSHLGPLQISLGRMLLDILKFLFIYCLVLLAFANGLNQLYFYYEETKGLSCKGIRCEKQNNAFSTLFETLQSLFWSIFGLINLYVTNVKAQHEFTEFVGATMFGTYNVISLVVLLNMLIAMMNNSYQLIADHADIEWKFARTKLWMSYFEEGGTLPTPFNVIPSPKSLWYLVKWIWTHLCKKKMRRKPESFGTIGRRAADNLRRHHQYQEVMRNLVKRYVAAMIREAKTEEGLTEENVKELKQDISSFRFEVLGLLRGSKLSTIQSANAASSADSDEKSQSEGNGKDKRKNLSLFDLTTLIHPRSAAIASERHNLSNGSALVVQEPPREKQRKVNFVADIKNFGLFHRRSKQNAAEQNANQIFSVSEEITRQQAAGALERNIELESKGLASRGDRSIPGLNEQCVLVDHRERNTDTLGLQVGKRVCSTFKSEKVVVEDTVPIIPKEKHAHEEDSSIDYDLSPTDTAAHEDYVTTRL

[13] = molecular target: T3, Short transient receptor potential channel 4; experiment: mouse TRPC4 channel activators, dose response, cell-based, HEK293 TRPC4/mu-opioid, Fluo-4 calcium (AID 434937); format: functional
[14] = ARNT/TACC3 interaction disruptors, potency, confirmation, biochemical, AlphaScreen, cherry-picked samples (AID 651703); format: functional, Homo sapiens;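 further: His-tagged ARNT PAS-B domain paired with GST-TACC3 E629A dimer coactivator fragment; potency of inhibitors that break up the complex and lower AlphaScreen signal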
Estrogen receptor = Estrogen receptor (Homo sapiens, UniProt P03372);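 further: potency for inhibiting coactivator peptide recruitment to the receptor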
Estrogen receptor beta [15] = molecular target: T4, Estrogen receptor beta (Homo sapiens, UniProt Q92731);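 further: recombinant ER-beta bound to coactivator SRC1 peptide in presence of estradiol agonist; inhibitors block coactivator peptide binding and lower the FRET signal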
Estrogen receptor beta [16] = molecular target: T4, Estrogen receptor beta; experiment: ERβ–SRC-3 coactivator interaction inhibitors, confirmation, orthogonal assay, biochemical, ELISA, streptavidin-HRP readout (AID 1060)
[17] = molecular target: T5, Small ubiquitin-related modifier 1 (Homo sapiens, UniProt P63165); experiment: inhibitors of SUMO1 peptide binding, dose response, biochemical, fluorescence polarization, uHTS hits (AID 624382); format: functional; conditions: read-out: IC50_Mean
[18] = molecular target: T5, Small ubiquitin-related modifier 1; experiment: inhibitors of SUMO1 partner interactions, dose response, biochemical, FRET (AID 624383); format: functional; conditions: read-out: IC50_Mean
Mu-type opioid receptor = Mu-type opioid receptor (Homo sapiens, UniProt P35372); format: functional, cell-based;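 further: U2OS cells with beta-arrestin recruitment to OPRM1 by beta-gal complementation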
[19] = molecular target: 5-hydroxytryptamine receptor 2A (Mus musculus, UniProt P35363); format: functional, cell-based;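 further: CHO-K1 cells with tagged receptor and beta-arrestin; agonist potency measured as compound-induced activation of the receptor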
[20] = molecular target: T6, Scavenger receptor class B member 1 (Mus musculus, UniProt Q61009); experiment: inhibitors of SR-BI dependent HDL uptake, dose response, ldlA[mSR-BI] CHO cells, fluorescence plate reader, dry powder, set 9 (AID 623880); format: functional, cell-based
T6 sequence (Q61009 whole entry): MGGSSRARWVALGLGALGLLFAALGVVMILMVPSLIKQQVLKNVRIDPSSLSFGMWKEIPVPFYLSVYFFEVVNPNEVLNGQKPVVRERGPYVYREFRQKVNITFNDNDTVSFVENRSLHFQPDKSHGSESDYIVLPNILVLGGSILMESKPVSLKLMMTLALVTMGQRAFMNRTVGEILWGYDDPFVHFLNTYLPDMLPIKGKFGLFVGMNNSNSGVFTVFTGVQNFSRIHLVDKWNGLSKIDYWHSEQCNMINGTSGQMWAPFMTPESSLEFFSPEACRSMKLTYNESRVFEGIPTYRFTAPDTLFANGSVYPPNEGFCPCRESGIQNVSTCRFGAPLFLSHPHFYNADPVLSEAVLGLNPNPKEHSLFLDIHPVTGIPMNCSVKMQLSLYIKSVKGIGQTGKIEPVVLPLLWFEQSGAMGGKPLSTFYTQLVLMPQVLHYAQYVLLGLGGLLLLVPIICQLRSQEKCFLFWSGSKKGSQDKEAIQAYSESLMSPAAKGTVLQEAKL

[21] = molecular target: T6, Scavenger receptor class B member 1; experiment: inhibitors of SR-BI-mediated HDL uptake, dose response, cell-based, ldlA[mSR-BI] CHO, DiI fluorescence, dry powder, set 10 (AID 624029); format: functional

T5 sequence (P63165 whole entry): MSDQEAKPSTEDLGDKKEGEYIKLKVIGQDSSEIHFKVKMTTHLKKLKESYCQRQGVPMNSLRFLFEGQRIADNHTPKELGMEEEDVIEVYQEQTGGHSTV
T2 sequence (P49327 whole entry, the tested form may be a part): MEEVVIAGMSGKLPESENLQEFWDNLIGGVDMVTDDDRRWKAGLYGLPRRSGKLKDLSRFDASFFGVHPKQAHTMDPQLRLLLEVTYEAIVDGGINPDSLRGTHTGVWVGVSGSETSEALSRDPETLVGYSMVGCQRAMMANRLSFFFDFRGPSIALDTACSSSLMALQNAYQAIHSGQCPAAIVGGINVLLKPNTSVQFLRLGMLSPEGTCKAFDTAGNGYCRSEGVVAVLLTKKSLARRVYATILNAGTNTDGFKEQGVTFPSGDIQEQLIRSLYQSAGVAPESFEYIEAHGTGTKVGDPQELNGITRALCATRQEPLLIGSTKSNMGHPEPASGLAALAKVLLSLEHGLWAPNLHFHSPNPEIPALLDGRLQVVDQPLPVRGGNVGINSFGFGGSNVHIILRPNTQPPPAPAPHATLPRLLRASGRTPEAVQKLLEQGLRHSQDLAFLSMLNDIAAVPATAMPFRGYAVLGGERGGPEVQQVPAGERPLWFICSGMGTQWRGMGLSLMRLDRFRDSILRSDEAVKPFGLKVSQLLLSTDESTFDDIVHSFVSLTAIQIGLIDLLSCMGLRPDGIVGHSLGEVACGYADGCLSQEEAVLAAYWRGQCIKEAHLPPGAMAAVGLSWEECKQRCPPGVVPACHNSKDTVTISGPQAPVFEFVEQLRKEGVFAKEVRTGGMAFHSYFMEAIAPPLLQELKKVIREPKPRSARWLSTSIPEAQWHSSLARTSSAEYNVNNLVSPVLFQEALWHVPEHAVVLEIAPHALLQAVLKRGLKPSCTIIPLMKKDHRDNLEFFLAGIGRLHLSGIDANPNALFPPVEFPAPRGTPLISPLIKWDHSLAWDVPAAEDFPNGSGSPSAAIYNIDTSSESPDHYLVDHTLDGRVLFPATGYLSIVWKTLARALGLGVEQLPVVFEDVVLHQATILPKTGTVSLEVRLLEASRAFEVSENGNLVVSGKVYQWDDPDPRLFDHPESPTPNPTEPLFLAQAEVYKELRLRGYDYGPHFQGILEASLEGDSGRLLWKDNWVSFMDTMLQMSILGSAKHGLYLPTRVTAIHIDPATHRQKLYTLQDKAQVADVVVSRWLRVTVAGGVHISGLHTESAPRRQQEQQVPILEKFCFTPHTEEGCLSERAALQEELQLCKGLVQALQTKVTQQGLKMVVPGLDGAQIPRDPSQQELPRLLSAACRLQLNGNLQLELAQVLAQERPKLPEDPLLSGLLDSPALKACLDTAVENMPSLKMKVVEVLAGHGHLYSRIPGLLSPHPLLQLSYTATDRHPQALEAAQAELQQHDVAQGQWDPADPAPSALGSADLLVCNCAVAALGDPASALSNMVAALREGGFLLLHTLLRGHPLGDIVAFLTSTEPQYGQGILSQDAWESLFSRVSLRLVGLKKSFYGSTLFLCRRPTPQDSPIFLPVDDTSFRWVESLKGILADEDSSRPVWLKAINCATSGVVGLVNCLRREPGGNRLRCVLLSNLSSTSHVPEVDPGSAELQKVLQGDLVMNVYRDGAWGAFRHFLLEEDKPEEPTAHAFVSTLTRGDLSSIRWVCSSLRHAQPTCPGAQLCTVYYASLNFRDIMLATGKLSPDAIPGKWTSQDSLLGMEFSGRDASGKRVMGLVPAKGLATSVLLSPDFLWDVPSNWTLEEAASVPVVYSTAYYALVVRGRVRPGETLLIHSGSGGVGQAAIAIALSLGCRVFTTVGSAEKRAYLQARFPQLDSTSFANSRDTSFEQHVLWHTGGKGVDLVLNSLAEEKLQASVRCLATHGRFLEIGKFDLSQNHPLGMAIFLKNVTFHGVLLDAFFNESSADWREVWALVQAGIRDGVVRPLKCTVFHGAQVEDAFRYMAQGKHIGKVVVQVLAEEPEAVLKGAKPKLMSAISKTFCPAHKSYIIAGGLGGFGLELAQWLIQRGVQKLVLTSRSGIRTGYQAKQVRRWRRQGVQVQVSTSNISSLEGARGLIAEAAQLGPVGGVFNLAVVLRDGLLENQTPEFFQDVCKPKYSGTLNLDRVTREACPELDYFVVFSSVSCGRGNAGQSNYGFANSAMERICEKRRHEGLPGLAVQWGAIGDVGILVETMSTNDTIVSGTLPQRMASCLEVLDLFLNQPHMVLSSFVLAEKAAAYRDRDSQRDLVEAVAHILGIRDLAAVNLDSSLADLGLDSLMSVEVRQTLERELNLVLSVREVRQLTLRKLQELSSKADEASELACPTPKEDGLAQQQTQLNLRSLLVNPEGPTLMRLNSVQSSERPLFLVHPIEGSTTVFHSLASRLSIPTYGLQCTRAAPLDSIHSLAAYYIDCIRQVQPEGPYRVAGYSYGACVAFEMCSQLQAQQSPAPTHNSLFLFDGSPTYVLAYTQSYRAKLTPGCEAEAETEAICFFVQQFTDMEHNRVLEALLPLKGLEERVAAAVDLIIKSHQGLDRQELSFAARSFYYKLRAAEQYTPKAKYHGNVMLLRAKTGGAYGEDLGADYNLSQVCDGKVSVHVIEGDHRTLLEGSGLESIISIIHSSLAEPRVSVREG
T4 sequence (Q92731 whole entry): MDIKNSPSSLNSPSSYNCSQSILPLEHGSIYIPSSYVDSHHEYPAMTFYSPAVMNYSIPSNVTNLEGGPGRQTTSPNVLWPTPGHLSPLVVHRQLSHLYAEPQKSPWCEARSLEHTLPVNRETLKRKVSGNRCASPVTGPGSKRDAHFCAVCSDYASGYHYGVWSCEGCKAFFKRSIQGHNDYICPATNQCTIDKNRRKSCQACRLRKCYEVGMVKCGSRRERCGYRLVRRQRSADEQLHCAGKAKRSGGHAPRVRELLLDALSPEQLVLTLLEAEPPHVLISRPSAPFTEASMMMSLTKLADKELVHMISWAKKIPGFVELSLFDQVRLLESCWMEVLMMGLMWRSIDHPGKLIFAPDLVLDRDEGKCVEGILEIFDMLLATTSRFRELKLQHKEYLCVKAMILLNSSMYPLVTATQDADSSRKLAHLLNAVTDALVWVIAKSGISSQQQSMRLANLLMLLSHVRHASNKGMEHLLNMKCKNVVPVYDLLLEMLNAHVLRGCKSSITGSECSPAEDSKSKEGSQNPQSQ
Chain of Mu-type opioid receptor (P35372 whole entry): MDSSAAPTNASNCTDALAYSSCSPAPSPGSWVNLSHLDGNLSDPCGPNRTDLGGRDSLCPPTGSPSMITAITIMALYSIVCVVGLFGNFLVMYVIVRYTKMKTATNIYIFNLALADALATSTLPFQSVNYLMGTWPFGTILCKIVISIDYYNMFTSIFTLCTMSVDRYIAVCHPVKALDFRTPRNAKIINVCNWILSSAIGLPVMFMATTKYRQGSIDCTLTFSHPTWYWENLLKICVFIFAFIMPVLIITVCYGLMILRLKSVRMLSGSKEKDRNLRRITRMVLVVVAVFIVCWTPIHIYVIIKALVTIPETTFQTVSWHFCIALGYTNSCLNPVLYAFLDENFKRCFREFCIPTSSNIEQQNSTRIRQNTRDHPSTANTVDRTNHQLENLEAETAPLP
Chain of Estrogen receptor (P03372 whole entry): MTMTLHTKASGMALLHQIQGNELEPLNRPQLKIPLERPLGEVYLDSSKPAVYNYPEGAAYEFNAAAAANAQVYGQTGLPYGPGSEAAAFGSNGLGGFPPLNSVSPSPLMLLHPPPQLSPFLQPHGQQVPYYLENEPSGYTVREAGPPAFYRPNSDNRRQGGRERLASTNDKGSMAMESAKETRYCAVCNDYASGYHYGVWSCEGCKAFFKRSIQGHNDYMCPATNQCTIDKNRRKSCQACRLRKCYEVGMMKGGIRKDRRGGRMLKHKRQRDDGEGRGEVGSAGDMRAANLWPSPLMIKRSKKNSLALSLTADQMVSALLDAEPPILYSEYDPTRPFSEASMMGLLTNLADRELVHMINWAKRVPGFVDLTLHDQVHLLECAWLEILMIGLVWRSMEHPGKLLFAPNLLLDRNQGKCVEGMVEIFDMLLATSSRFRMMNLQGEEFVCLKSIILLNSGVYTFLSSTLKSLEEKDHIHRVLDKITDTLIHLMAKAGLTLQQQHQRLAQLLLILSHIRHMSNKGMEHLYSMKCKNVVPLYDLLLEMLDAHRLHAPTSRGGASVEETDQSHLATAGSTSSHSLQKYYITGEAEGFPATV
Chain of 5-hydroxytryptamine receptor 2A (P35363 whole entry): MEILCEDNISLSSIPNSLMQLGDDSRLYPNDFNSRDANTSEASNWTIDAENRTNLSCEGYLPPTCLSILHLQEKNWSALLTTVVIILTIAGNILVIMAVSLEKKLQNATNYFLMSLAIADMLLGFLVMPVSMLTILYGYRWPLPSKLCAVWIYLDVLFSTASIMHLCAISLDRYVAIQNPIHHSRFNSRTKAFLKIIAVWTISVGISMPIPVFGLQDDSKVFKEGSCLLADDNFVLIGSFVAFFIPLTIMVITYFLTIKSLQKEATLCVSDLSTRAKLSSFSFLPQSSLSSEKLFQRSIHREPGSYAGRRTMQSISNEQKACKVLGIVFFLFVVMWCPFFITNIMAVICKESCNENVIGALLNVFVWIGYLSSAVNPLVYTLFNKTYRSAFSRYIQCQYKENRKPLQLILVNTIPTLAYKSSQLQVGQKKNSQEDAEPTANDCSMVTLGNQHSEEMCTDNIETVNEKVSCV
Chain of Paired box protein Pax-8 (Q06710 whole entry): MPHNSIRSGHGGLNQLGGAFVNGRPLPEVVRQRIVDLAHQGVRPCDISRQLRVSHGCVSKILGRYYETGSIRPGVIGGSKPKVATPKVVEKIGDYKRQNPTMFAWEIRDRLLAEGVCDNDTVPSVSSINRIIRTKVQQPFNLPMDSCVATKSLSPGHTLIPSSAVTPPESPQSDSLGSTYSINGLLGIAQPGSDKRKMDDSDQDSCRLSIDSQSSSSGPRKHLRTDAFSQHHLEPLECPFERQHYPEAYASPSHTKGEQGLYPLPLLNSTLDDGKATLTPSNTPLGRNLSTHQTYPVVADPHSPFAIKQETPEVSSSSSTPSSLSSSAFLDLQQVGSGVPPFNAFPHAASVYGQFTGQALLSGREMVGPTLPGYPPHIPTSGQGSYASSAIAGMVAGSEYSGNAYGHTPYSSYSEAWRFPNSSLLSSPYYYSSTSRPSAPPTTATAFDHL

SMILES: CCOc1ccccc1NC(=O)c1nc(S(=O)(=O)Cc2cccc(C)c2)ncc1Cl
- EC50 [1]: > 120 µM (not active)
- EC50 [2]: 12 µM (active)
- EC50 [3]: 10.9 µM (active)
- EC50 [4]: 8.12 µM (active)
- EC50 (Streptokinase A): 1.28 µM (active)
- EC50 (Streptococcus): 15.7 µM (active)
- AC50 (INS1): 5.15 µM (active)
- AC50 [5]: 324 nM (active)
- AC50 [6]: 18.8 µM (active)
- AC50 [7]: 6.38 µM (active)
- IC50 (Fatty acid synthase [8]): 11.5 µM (active)
- EC50 [9]: 11.5 µM (active)
- IC50 (Fatty acid synthase [10]): 3.06 µM (active)
- AC50 (Paired box protein Pax-8): 7.71 µM (active)
- AC50 [11]: 24.4 µM (active)

SMILES: COc1cccc(CNCc2ccccn2)c1OC
- EC50 [12]: 299 nM (active)
- EC50 [13]: 267 nM (active)
- AC50 [14]: 116 µM (active)

SMILES: Cc1nc2cc(-c3ccsc3-n3c(C)ccc3C)nn2c(O)c1Cl
- IC50 (Estrogen receptor): 27.5 µM (active)
- IC50 (Estrogen receptor beta [15]): 7.66 µM (active)
- IC50 (Estrogen receptor beta [16]): 1.53 µM (not active)
- IC50 [17]: > 66.6 µM (inactive)
- IC50 [18]: 10.7 µM (active)

SMILES: O=C(NCCCN1CCN(c2ccccc2F)CC1)C1CCC(=O)N1C1CCCCC1 (configuration not stated)
- EC50 (Mu-type opioid receptor): 92.5 µM (inactive)
- EC50 [19]: 76.1 µM (inactive)

SMILES: COc1c(NC(=O)C(=O)c2ccc(OCCN3CCOCC3)c3ccccc23)cc(C(C)(C)C)cc1NS(C)(=O)=O [ITX-5061 FREE BASE]
- AC50 [20]: 11.4 nM (active)
- AC50 [21]: 146 nM (active)
